Results taken from patent publication US8415469B2, “Compounds and methods for kinase modulation, and indications therefor” (Plexxikon Inc., priority 2005, dated 2013).

Tests used:
Format in all cases: biochemical
B-Raf = target: T1, B-Raf (Homo sapiens, UniProt P15056); assay: AlphaScreen kinase assay, B-Raf; conditions: read-out: IC50, activity toward kinase B-Raf
T1 construct: purchased Upstate Biotechnology

B-Raf V600E = target: T2, B-Raf V600E (Homo sapiens, UniProt P15056, V600E); assay: AlphaScreen kinase assay, B-Raf V600E; conditions: read-out: IC50, activity toward kinase B-Raf V600E
T2 construct: P4254. pFastBacBD-CDC37 BRAF D437-K722-X, V600E; His6 with pFastBac HT leader (TEV site) (N); made in house; host or cells: Sf9 (baculovirus; chaperone CDC37 co-expressed)

c-Raf-1 = target: T3, c-Raf-1 (Homo sapiens, UniProt P04049); assay: AlphaScreen kinase assay, c-Raf-1; conditions: read-out: IC50, activity toward kinase c-Raf-1
T3 construct: purchased Upstate Biotechnology

MAP4K4 = MAP4K4 (Homo sapiens, UniProt O95819); assay: AlphaScreen kinase assay, MAP4K4; conditions: read-out: IC50, activity toward kinase MAP4K4
MAP4K4, sequence (O95819 whole entry): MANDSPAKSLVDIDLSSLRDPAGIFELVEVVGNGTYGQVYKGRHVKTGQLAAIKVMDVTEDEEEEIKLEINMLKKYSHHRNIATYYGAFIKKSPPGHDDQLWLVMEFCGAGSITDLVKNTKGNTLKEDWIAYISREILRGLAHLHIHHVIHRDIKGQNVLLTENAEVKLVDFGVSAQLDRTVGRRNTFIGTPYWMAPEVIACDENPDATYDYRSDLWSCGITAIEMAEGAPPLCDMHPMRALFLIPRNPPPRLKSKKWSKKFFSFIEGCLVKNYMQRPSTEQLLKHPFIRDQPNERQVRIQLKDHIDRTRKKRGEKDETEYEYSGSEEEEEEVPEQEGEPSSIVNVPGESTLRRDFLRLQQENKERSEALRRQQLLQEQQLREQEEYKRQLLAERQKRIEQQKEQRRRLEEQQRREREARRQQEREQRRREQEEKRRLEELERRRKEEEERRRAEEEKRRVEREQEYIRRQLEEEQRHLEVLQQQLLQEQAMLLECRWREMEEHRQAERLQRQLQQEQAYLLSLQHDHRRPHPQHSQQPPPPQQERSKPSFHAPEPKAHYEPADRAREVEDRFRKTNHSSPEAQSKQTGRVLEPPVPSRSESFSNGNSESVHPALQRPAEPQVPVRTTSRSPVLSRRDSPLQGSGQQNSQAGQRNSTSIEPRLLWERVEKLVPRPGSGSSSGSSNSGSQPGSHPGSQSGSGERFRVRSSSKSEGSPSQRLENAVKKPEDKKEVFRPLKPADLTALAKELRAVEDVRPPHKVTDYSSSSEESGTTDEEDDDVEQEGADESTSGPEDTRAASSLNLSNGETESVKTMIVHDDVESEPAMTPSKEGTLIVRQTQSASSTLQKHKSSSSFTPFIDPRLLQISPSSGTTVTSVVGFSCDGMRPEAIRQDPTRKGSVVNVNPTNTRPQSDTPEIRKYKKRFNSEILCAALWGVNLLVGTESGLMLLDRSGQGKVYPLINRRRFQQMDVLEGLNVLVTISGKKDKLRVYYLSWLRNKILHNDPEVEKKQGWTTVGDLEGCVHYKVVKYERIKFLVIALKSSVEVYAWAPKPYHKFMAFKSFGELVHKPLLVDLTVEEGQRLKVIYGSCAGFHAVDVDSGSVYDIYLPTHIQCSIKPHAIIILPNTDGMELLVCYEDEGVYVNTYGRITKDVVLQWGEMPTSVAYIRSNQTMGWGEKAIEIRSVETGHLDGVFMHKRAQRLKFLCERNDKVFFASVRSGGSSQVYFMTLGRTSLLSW

FGFR1 = target: T4, FGFR1 (Homo sapiens, UniProt P11362, C488A/C584S); assay: AlphaScreen kinase assay, FGFR1; conditions: read-out: IC50, activity toward kinase FGFR
T4 construct: P1351.pET N6 BI-PTP FGFR A458-E765-X C488A, C584S; made in house; host or cells: E. coli (PTP1B co-expressed)

Fms = target: T5, Fms (Homo sapiens, UniProt P07333); assay: AlphaScreen kinase assay, Fms; conditions: read-out: IC50, activity toward kinase Fms
T5 construct: purchased Upstate Biotechnology
T5 sequence (P07333 20-972): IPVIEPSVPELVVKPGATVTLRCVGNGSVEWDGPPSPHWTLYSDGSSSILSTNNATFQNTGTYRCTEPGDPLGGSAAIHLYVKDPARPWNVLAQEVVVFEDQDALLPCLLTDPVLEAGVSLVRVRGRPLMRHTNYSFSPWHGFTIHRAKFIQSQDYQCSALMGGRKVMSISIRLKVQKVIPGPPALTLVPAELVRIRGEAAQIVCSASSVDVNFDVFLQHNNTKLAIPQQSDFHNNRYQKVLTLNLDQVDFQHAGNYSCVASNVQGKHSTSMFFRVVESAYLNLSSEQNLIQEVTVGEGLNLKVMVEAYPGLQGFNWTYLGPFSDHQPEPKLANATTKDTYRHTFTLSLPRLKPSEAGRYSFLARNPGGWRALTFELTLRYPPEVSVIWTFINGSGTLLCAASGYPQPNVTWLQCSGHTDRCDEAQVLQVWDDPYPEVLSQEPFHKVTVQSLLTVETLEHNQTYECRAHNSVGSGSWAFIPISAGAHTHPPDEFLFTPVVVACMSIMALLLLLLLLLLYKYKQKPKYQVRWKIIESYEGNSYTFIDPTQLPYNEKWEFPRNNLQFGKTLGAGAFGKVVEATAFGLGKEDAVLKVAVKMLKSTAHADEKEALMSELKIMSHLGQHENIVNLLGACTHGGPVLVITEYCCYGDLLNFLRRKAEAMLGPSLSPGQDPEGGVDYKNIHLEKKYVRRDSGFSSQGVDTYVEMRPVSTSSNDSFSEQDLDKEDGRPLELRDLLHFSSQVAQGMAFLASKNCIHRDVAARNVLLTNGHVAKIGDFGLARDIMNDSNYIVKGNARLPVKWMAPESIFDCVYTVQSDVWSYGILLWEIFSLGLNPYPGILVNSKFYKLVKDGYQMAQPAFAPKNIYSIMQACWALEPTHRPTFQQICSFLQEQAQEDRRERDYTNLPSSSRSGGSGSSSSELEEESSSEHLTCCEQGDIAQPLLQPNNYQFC

Jnk1 = target: T6, Jnk1 (Homo sapiens, UniProt P45983); assay: AlphaScreen kinase assay, Jnk1; conditions: read-out: IC50, activity toward kinase Jnk1
T6 construct: purchased Upstate Biotechnology
T6 sequence (P45983 whole entry): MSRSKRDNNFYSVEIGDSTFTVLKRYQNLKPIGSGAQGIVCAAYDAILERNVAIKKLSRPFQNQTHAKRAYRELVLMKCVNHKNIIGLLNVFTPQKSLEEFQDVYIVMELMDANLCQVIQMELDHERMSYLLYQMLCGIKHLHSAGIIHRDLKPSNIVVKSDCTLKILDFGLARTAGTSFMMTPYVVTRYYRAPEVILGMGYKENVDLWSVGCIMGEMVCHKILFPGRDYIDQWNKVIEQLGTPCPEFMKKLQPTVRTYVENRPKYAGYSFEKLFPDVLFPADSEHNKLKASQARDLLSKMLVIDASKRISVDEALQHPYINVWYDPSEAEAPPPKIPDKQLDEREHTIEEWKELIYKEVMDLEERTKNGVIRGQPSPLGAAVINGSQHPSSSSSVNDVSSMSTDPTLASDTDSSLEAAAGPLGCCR

Kit = target: T7, Kit (Homo sapiens, UniProt P10721); assay: AlphaScreen kinase assay, Kit; conditions: read-out: IC50, activity toward kinase Kit
T7 construct: P1332.N6 BI PTP KIT M552-K948-X COD; His6 (N); made in house; host or cells: E. coli (PTP1B co-expressed)

Src = target: T8, Src (Homo sapiens, UniProt P12931); assay: AlphaScreen kinase assay, Src; conditions: read-out: IC50, activity toward kinase Src
T8 construct: P1144. pET-N6 BI-PTP SRC V86-L536-X; made in house
T8 sequence (P12931 with tags, fused parts or gaps): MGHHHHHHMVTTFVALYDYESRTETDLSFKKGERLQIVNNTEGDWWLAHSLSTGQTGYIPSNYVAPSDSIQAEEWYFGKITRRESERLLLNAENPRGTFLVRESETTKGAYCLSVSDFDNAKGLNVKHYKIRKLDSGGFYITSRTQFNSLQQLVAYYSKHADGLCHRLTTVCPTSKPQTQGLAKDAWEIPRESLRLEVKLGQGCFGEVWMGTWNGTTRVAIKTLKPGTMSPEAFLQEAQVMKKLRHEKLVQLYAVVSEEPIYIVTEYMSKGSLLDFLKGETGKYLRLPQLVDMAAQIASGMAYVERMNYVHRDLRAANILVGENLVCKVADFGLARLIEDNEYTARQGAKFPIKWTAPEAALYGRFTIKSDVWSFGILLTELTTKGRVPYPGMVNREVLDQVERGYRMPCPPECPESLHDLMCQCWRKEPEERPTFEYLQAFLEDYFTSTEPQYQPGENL

Jnk3 = target: T9, Jnk3 (Homo sapiens, UniProt P53779); assay: AlphaScreen kinase assay, Jnk3; conditions: read-out: IC50, activity toward kinase Jnk3
T9 construct: purchased Upstate Biotechnology
T9 sequence (P53779 whole entry): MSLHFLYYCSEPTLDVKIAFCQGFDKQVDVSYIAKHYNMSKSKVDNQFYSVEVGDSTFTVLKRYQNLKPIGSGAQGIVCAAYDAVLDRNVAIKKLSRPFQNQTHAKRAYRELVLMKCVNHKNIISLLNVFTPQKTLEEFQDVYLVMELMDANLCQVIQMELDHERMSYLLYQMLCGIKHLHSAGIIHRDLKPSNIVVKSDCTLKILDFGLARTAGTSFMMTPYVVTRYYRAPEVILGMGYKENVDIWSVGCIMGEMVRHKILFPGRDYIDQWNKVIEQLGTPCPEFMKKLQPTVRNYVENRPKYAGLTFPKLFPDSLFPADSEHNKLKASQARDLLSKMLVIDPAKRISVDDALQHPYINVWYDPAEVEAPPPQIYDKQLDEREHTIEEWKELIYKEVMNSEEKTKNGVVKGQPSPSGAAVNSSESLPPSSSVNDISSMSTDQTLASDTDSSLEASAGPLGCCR

Stk6 = target: T10, Stk6 (Homo sapiens, UniProt O14965); assay: Z'-Lyte FRET kinase assay (Invitrogen), Stk6; conditions: read-out: IC50, activity toward kinase Stk6
T10 construct: purchased Invitrogen (Carlsbad, Calif.), screening service
T10 sequence (O14965 1-403): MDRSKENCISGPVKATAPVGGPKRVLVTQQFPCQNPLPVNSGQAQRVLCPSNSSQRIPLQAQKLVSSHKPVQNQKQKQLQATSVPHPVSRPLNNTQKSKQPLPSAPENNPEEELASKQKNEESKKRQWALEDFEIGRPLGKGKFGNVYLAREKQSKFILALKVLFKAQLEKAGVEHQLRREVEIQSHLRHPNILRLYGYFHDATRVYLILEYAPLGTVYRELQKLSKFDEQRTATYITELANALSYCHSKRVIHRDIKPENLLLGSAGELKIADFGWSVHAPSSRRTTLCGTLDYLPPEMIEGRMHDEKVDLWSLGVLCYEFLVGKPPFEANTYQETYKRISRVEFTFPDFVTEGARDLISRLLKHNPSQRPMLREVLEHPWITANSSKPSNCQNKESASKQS

Fak = target: T11, Fak (Homo sapiens, UniProt Q05397); assay: AlphaScreen kinase assay, Fak; conditions: read-out: IC50, activity toward kinase Fak
T11 construct: P1358.pFastBacHtb FAK S411-Q686-X; His6 with pFastBacHTb leader (TEV site) (N); made in house; host or cells: Sf9 (baculovirus)

Flt1 = target: T12, Flt1 (Homo sapiens, UniProt P17948); assay: AlphaScreen kinase assay, Flt1; conditions: read-out: IC50, activity toward kinase Flt1
T12 construct: P1826.pETN6 BI-PTP FLT1 M799-D1165-X WT; His6 (N); made in house; host or cells: E. coli (PTP1B co-expressed)
T12 sequence (P17948 with tags, fused parts or gaps): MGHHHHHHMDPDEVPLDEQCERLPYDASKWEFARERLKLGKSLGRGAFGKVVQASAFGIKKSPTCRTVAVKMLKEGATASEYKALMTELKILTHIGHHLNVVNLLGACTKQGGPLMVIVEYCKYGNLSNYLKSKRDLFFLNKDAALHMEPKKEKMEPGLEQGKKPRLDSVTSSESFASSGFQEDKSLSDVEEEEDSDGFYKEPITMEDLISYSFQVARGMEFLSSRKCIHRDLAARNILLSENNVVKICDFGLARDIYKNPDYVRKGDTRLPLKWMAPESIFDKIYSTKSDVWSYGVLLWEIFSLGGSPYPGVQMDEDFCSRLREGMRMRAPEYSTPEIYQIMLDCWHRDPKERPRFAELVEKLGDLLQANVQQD

Kdr = target: T13, Kdr (Homo sapiens, UniProt P35968); assay: Z'-Lyte FRET kinase assay (Invitrogen), Kdr; conditions: read-out: IC50, activity toward kinase Kdr
T13 construct: purchased Invitrogen (assay run by Invitrogen)
T13 sequence (P35968 20-1356): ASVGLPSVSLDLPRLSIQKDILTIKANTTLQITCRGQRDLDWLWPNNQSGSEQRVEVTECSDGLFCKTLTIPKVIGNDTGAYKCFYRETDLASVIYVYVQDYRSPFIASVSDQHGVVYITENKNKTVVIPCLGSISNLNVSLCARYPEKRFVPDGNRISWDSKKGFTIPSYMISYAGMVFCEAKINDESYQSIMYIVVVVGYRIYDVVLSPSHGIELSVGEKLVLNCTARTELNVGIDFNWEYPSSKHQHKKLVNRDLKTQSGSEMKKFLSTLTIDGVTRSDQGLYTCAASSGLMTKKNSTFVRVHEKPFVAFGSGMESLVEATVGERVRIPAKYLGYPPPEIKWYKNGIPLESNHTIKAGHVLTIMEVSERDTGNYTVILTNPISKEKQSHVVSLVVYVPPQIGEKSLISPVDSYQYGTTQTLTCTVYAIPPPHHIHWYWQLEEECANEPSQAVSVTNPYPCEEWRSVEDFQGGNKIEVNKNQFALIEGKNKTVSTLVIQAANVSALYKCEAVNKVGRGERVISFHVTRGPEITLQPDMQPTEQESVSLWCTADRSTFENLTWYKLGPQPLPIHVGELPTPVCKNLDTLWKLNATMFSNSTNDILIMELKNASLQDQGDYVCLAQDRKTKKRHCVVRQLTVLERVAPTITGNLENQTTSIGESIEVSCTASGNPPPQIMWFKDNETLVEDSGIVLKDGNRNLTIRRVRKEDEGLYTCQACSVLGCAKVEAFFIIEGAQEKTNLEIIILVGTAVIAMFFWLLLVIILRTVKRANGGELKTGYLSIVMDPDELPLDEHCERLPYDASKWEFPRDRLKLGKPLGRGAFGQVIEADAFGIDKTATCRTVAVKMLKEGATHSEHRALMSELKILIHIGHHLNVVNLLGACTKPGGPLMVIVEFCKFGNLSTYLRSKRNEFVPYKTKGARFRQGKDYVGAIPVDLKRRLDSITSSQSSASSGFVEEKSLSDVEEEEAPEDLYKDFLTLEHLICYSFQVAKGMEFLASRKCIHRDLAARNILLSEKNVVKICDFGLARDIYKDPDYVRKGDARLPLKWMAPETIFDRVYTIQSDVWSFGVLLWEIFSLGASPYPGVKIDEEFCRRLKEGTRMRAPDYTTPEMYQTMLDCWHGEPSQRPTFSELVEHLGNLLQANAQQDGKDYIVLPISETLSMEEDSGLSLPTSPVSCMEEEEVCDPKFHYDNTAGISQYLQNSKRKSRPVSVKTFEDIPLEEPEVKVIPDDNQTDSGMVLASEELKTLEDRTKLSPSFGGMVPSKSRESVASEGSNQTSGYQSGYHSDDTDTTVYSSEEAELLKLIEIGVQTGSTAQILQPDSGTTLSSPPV

IC50 (B-Raf) [µM]	IC50 (B-Raf V600E) [µM]	IC50 (c-Raf-1) [µM]	IC50 (MAP4K4) [µM]	IC50 (FGFR1) [µM]	IC50 (Fms) [µM]	IC50 (Jnk1) [µM]	IC50 (Kit) [µM]	IC50 (Src) [µM]	IC50 (Jnk3) [µM]	IC50 (Stk6) [µM]	IC50 (Fak) [µM]	IC50 (Flt1) [µM]	IC50 (Kdr) [µM]	Compound
≤ 10	≤ 10	≤ 10	≤ 10	–	–	–	–	–	–	–	–	–	–	CCCS(=O)(=O)Nc1cccc(C(=O)c2c[nH]c3ncccc23)c1F [Compound P-1056, propane-1-sulfonic acid [2-fluoro-3-(1H-1-pyrrolo[2,3-b]pyridine-3-carbonyl)-phenyl]-amide]
≤ 10	≤ 10	≤ 10	≤ 10	≤ 10	≤ 10	≤ 10	≤ 10	≤ 10	–	–	–	–	–	CCCS(=O)(=O)Nc1ccc(F)c(C(=O)c2c[nH]c3ncc(N4CCOCC4)cc23)c1F [Compound P-0853, Propane-1-sulfonic acid [2,4-difluoro-3-(5-morpholin-4-yl-1H-pyrrolo[2,3-b]pyridine-3-carbonyl)-phenyl]-amide]
≤ 10	≤ 10	≤ 10	≤ 10	≤ 10	–	–	≤ 10	–	–	–	–	–	–	O=C(c1c(F)ccc(NS(=O)(=O)c2ccc(Cl)cc2)c1F)c1c[nH]c2ncccc12 [Compound P-0937, 4-Chloro-N-[2,4-difluoro-3-(1H-pyrrolo[2,3-b]pyridine-3-carbonyl)-phenyl]-benzenesulfonamide]
–	–	–	≤ 10	–	–	–	≤ 10	–	≤ 10	≤ 10	–	–	–	COc1cccc(Cc2c[nH]c3ncc(-c4ccsc4)cc23)n1 [Compound P-0300]
≤ 10	≤ 10	≤ 10	≤ 10	≤ 10	–	–	–	–	–	–	–	–	–	CCCS(=O)(=O)Nc1ccc(Cl)c(C(=O)c2c[nH]c3ncccc23)c1F [Compound P-0904, Propane-1-sulfonic acid [4-chloro-2-fluoro-3-(1H-pyrrolo[2,3-b]pyridine-3-carbonyl)-phenyl]-amide]
≤ 10	≤ 10	–	≤ 10	≤ 10	–	–	≤ 10	≤ 10	–	–	≤ 10	≤ 10	–	NC(=O)c1cccc(-c2cnc3[nH]cc(C(=O)c4ccccc4OCc4ccccc4)c3c2)c1 [Compound P-1383]
≤ 10	≤ 10	≤ 10	≤ 10	≤ 10	≤ 10	≤ 10	≤ 10	≤ 10	≤ 10	–	≤ 10	≤ 10	–	CCC(C)NC(=O)Nc1ccc(F)c(C(=O)c2c[nH]c3ncc(-c4cccnc4)cc23)c1F (stereo not drawn) [Compound P-1289, 1-sec-Butyl-3-[2,4-difluoro-3-(5-pyridin-3-yl-1H-pyrrolo[2,3-b]pyridine-3-carbonyl)-phenyl]-urea]
–	≤ 10	–	≤ 10	–	–	–	≤ 10	≤ 10	–	–	–	≤ 10	–	O=C(O)/C=C/c1cccc(-c2cnc3[nH]cc(C(=O)c4cccc(OC(F)(F)F)c4)c3c2)c1 [Compound P-1417, (E)-3-{3-[3-(3-Trifluoromethoxy-benzoyl)-1H-pyrrolo[2,3-b]pyridin-5-yl]-phenyl}-acrylic acid]
–	–	–	≤ 10	–	–	–	–	–	–	≤ 10	–	–	≤ 10	c1cnc2[nH]cc(Sc3ccncc3)c2c1 [Compound P-0131]
≤ 10	≤ 10	≤ 10	≤ 10	–	≤ 10	–	≤ 10	–	–	–	–	–	–	O=C(c1c(F)ccc(NS(=O)(=O)c2ccc(C(F)(F)F)cc2)c1F)c1c[nH]c2ncccc12 [Compound P-0931, N-[2,4-Difluoro-3-(1H-pyrrolo[2,3-b]pyridine-3-carbonyl)-phenyl]-4-trifluoromethyl-benzenesulfonamide]
–	–	–	≤ 10	≤ 10	≤ 10	–	≤ 10	–	–	–	≤ 10	–	≤ 10	COc1cc(Cc2c[nH]c3ncccc23)cc(OC)c1 [Compound P-0391]
–	≤ 10	–	≤ 10	–	–	–	–	–	–	≤ 10	–	–	≤ 10	COc1ccc(-c2cnc3[nH]cc(C#Cc4cccc(C(=O)O)c4)c3c2)cc1OC [Compound P-0174]
–	–	–	≤ 10	–	–	–	–	–	–	–	≤ 10	–	–	Cc1[nH]c2ncccc2c1-c1cccc(F)c1 [Compound P-0986]
–	–	–	≤ 10	≤ 10	≤ 10	–	≤ 10	–	–	–	≤ 10	–	–	O=C(c1c(F)cccc1F)c1c[nH]c2ncccc12 [Compound P-1685]
–	–	–	≤ 10	–	–	–	–	–	–	≤ 10	–	≤ 10	–	c1ccc(Sc2c[nH]c3ncccc23)nc1 [Compound P-0214]
–	–	–	≤ 10	–	–	–	≤ 10	–	≤ 10	≤ 10	–	–	≤ 10	c1cncc(-c2cnc3[nH]ccc3c2)c1 [Compound P-0176]
–	≤ 10	–	≤ 10	≤ 10	≤ 10	–	≤ 10	–	–	–	≤ 10	≤ 10	–	COc1cc(OC)cc(C(=O)c2c[nH]c3ncc(-c4cccnc4)cc23)c1 [Compound P-1411, (3,5-Dimethoxy-phenyl)-(5-pyridin-3-yl-1H-pyrrolo[2,3-b]pyridin-3-yl)-methanone]
–	–	–	≤ 10	–	≤ 10	–	–	–	–	≤ 10	–	–	–	Clc1ncccc1Cc1c[nH]c2ncccc12 [Compound P-0317]
≤ 10	–	≤ 10	≤ 10	–	–	–	–	–	–	–	–	–	–	COc1cc(Nc2ccnc3[nH]ccc23)cc(OC)c1OC [Compound P-0909]
≤ 10	≤ 10	≤ 10	≤ 10	≤ 10	≤ 10	≤ 10	≤ 10	–	≤ 10	–	≤ 10	≤ 10	–	CCCC(=O)Nc1ccc(F)c(C(=O)c2c[nH]c3ncc(-c4cccnc4)cc23)c1F [Compound P-1279]
